How the values were obtained:
[1] = biological target: TtCoAT·ADLP complex (NAD(H) site in ADLP) (Thermus thermophilus, UniProt Q72IQ0); assay: isothermal titration calorimetry; type: binding
[2] = biological target: T1, ADLP (Thermus thermophilus, UniProt Q72IQ0); assay: isothermal titration calorimetry; type: binding
T1 sequence (Q72IQ0 1-345): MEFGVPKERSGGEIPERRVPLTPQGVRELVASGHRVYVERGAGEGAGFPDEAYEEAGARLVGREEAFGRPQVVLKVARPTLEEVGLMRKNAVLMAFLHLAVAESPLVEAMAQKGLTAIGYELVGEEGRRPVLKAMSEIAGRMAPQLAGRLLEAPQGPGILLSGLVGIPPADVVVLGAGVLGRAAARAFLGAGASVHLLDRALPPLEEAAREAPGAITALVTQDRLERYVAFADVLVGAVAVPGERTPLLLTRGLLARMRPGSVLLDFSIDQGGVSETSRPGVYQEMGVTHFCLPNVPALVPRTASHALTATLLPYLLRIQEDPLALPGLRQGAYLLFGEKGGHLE

[3] = tested on: CCCC(=O)SCCNC(=O)CCNC(=O)[C@H](O)C(C)(C)COP(=O)(O)OP(=O)(O)OC[C@H]1O[C@@H](n2cnc3c(N)ncnc32)[C@H](O)[C@@H]1OP(=O)(O)O; assay: purified protein; settings: 100 mM acetate as co-substrate, pH 7.5, no NAD+

NC(=O)C1=CN([C@@H]2O[C@H](COP(=O)(O)OP(=O)(O)OC[C@H]3O[C@@H](n4cnc5c(N)ncnc54)[C@H](O)[C@@H]3O)[C@@H](O)[C@H]2O)C=CC1 [NADH]
Kd [1]: 340 ± 51 nM | Kd [2]: 220 nM

NC(=O)c1ccc[n+]([C@@H]2O[C@H](COP(=O)(O)OP(=O)(O)OC[C@H]3O[C@@H](n4cnc5c(N)ncnc54)[C@H](O)[C@@H]3O)[C@@H](O)[C@H]2O)c1 [NAD^+]
Kd [1]: 3100 ± 330 nM | Kd [2]: 9100 nM

TtCoAT·ADLP (CoA transferase site) (Thermus thermophilus HB27)
Km [3]: 33.1 ± 2.8 µM

From article doi:10.1101/2025.10.31.685773v1 (biorxiv, 2025)
